Results on two compounds are retold here after paper PMC6609541, “Enterohepatic circulation of glucuronide metabolites of drugs in dog” (Pharmacology Research & Perspectives, 2019).

For orientation: AUC(0-inf) means total exposure, with the tail of the curve extrapolated. Broadly, the half-life is how long it takes for the measured level to halve. A higher half-life goes with slow loss. The term clearance denotes the volume of plasma or blood freed of the substance per unit of time. A higher clearance goes with efficient removal.

For series [1], the system named is cryopreserved dog hepatocytes. Briefly: Hepatocyte metabolite profile with and without ABT (dog). Particulars: 4 h, 2 μmol/L. The class given is in vitro ADME. The protocol: (§1) Cryopreserved dog and human hepatocytes were obtained from BioreclamationIVT (Baltimore, MD). […] A stock solution of canagliflozin and DTPQ was added to medium to give a final incubation concentration of 2 μmol/L. The incubations including the media and cells were quenched after 4 hours with an equal volume of acetonitrile containing 200 ng/mL niflumic acid as internal standard. Samples were centrifuged at 3500 g for 10 minutes and the supernatant was analyzed by liquid chromatography coupled to a diode array UV detection and mass spectrometry system consisting of the Acquity ultra‐performance liquid chromatography column, Synapt G2‐S mass spectrometer, and an ultra‐performance liquid chromatography photodiode array detector (Waters, Milford, MA). The chromatographic separation of metabolites was achieved on a Waters 1.7‐μm Acquity BEH C18 (100 × 2.1 mm) column maintained at 60°C. The mobile phase consisted of solvent A (0.2% formic acid in water for DPTQ and 10 mmol/L ammonium acetate in water for canagliflozin) and solvent B (100% acetonitrile). The samples were eluted, at a flow rate of 0.5 mL/min with a gradient for 5 minutes. The LC/MS full scan data were processed by Metabolynx (Waters, Milford, MA) to identify metabolites. Product ion spectra were acquired to confirm the metabolites. The mass spectrometer was operated in positive ion mode with an electrospray ionization source. The parameters for the chamber were: capillary 1.0 kV, sample cone 50 V, source temperature 120°C, desolvation 500°C, and collision energy 25 V. The peak areas for parent, metabolite and internal standard were integrated to allow for comparison between conditions.

Series [2] can be described thus: Recovery of parent drug and glucuronide metabolites in urine, bile and feces of BDC and intact dogs. The format is in vivo, beagle dog. The note with it: for % dose in feces, Parent / % dose in bile, Parent / renal excretion of parent drug / % dose in urine, Parent: 0.5 mg/kg IV; for % dose in feces, Parent / % dose in bile, Parent / % dose in urine, Parent: over 48 hours; for % dose in bile, Parent: 0.5 mg/kg; for renal excretion of parent drug: dog (BDC and intact); for Biliary excretion % of glucuronide / Urinary excretion % of glucuronide: dog; for Biliary excretion % of glucuronide: BDC; for Urinary excretion % of glucuronide: BDC and/or intact. On the procedure: (§2) Canagliflozin and DPTQ, both at 0.5 mg/kg, were administered intravenously in 25 mmol/L phosphate buffer (pH 8) containing 10% dimethylacetamide (v/v), 15% ethanol (v/v) via a cephalic vein. Total volume administered was 1 mL/kg. Dogs were housed in stainless steel metabolic cages during the study. Serial blood samples were collected from the jugular vein at 0.08, 0.25, 0.5, 1, 2, 4, 8, 12, 24, 36 and 48‐hours post‐dose with collection tubes containing anticoagulant K3‐EDTA. Plasma was obtained by centrifugation at 1600g for 10 minutes. Cumulative urine samples were collected between 0‐12, 12‐24, 24‐36 and 36‐48 hours and feces were collected between 0‐24 and 24‐48 hours in both intact and BDC dogs. Bile samples were collected between 0‐12, 12‐24, 24‐36, 36‐48 hours in BDC dogs. The weights of all samples except blood and plasma were recorded. All the samples were stored at −70°C until analysis by liquid chromatography tandem‐mass spectrometry (LC‐MS/MS) was performed.
Aliquots of plasma, urine, bile or feces homogenate (50 µL) were incubated with equal volume of 0.2 mol/L sodium acetate buffer (pH 5.0), and 15 μL of β‐glucuronidase (>85 000 units/mL) in a 37°C water bath overnight. The samples were extracted for LC‐MS/MS after the hydrolysis was performed. […] The concentration of O‐glucuronides was determined by subtracting the concentration from the aliquot without treatment of β‐glucuronidase from the one with enzyme treatment.
(§3) Canagliflozin and DPTQ in plasma, bile, urine and feces were quantified using LC‐MS/MS. All samples plasma, urine and bile) were mixed with an organic internal standard solution essentially described previously,15 to precipitate protein and centrifuged, and the resulting supernatants were analyzed using AB Sciex API 4000 quadrupole mass spectrometer (Applied Biosystems, Foster City, CA) equipped with a TurboIonSpray interface. The feces samples were homogenized in MeOH:H2O (1:1) and shaken vigorously to obtain slurry. The homogenates then went through the sample extraction along with other matrices. The blank plasma, urine, bile and feces was spiked with internal standard for calibration curve. The pumps were Shimadzu LC‐10AD units with a SCL‐10A controller (Kyoto, Japan), and a Z‐215 liquid handler (Gilson, Middleton, WI) was used as the autosampler. All compounds were chromatographically separated using a Betasil javelin C18 20 × 2.1‐mm 5‐μm HPLC column (Thermo Fisher Scientific, Waltham, MA). The mobile phase consisted of solvent A (1 mmol/L ammonium bicarbonate in water) and solvent B (1 mmol/L ammonium bicarbonate in methanol). Drugs and metabolites were detected in positive ion mode, using selected ion mode: canagliflozin 462.2 → 191.1 m/z, DPTQ 436.2 → 158.9 m/z, and DPTQ‐O‐glucuronide 612.2 → 418.1.

Series [3] relates to cryopreserved human hepatocytes. Briefly: Hepatocyte metabolite profile with and without ABT (human). The format is in vitro ADME. Particulars: 4 h, 2 μmol/L. The protocol:
as §1

The nature of series [4]: Plasma pharmacokinetics after single intravenous administration in bile duct cannulated (BDC) and intact beagle dogs. The format is in vivo, beagle dog. Particulars: for EHC / AUC(0-inf) / half-life / clearance / AUC / Vd: dog; for EHC: enterohepatic circulation; for AUC(0-inf) / half-life / clearance / AUC / Vd: male, beagle, plasma, iv; for clearance: plasma clearance; for AUC: mean ± SD n=4, read-out: AUC0‐48 hr. On the procedure: Male beagle dogs were obtained from Charles River Laboratories Inc (Wilmington, MA). Pharmacokinetic (PK) studies in intact dogs were conducted at Covance (Greenfield, IN), while bile duct cannulation surgery and PK studies were conducted in these dogs at Covance (Madison, WI). Dogs (weight: 9‐12 kg), were acclimated prior to study initiation according to Standard Operating Procedures (Covance). All intravenous compound administration was by an intravenous catheter implanted in the cephalic vein. Access to food and water was allowed ad libitum. All animal procedures were approved by the Institutional Animal Care and Use Committee at Covance. Replacement bile was not administered during the study since collection of bile was scheduled for a period of 48 hours, replacement is typically administered for studies lasting more than 60 hours.
as §2
Noncompartmental pharmacokinetic parameters were calculated using Watson version 7.4 (Thermo Scientific, Waltham, MA). Statistical significance of differences for pharmacokinetic parameters between two groups was examined with Student's t test using Sigmaplot 12.5 (Systat Software Inc, San Jose, CA).
as §3

Setting [5] is: 0.5 mg/kg, BDC dog, 0.5 mg/kg IV bolus.
Setting [6] is: 0.5 mg/kg, BDC dog, 0.5 mg/kg IV bolus, read-out: V dss.
The mark [7] stands for this setting: 0.5 mg/kg, intact dog, 0.5 mg/kg IV bolus.

Where “and” joins values, the source holds several entries; their conditions need not be identical. Equal values may be shown once. Read-outs that look alike come from different tables or passages of the source. Marks after values point to notes of the source that are not given here.

As to `C[C@H]1c2cccc(CC(C)(C)O)c2C[C@H](CO)N1C(=O)Cc1c(Cl)cccc1Cl` [DPTQ, 2‐(2,6‐dichlorophenyl)‐1‐((1S,3R)‐5‐(2‐hydroxy‐2‐methylpropyl)‐3‐(hydroxymethyl)‐1‐methyl‐3,4‐dihydroisoquinolin‐2(1H)‐yl)ethan‐1‐one], in series [1], the “Peak area (+ABT)” value is reported as 244 and the “Peak area (‐ABT)” value amounted to 33. In series [2] (BDC dog), the “% dose in feces, Parent” value came to 2.48 ± 4.8 % dose; the “% dose in bile, Parent” value is 8.91 % dose and 8.91 ± 8.9 % dose. In addition, in series [2], the “renal excretion of parent drug” value is < 1 % of dose, the “Biliary excretion % of glucuronide” value is “Moderate (moderate 30%‐70%)” and the “Urinary excretion % of glucuronide” value is reported as “Low (Low 0%‐30%)”. Besides, in series [2] (intact dog), the “% dose in feces, Parent” value was 13.5 ± 5.8 ^a % dose and the “% dose in urine, Parent” value stood at 0.64 ± 1.1 % dose. In series [3], the “Peak area (+ABT)” value was determined as 2364 and the “Peak area (‐ABT)” value worked out at 2810. In series [4], the EHC result was “Yes”. Moreover, in series [4] (intact dog, 0.5 mg/kg IV bolus, AUCinf not extrapolated, CL from AUC0‐48 hours, 0.5 mg/kg), the “CL0‐48 h” value was 2.73 mL/min/kg and 2.73 ± 1.2 mL/min/kg. In series [4] (setting [5]), the area under the curve AUC(0-inf) was found to be 5.89 ± 3.3 µM·h, the half-life is 150 ± 138 min, the clearance stood at 4.43 ± 3.1 mL/min/kg and the AUC worked out at 5.89 ± 3.3 µM·h. Also, the Vd in series [4] (setting [6]) came out at 0.33 ± 0.07 L/kg. In series [4] (setting [7]), the AUC came out at 7.94 ± 2.5 µM·h. The Vd in series [4] (0.5 mg/kg, intact dog, 0.5 mg/kg IV bolus, AUCinf not extrapolated, read-out: V dss 0‐48 hr) is 1.48 ± 0.25 L/kg.
For the compound `Cc1ccc([C@@H]2O[C@H](CO)[C@@H](O)[C@H](O)[C@H]2O)cc1Cc1ccc(-c2ccc(F)cc2)s1` [Canagliflozin], in series [1], the “Peak area (+ABT)” value was 8448 and the “Peak area (‐ABT)” value turned out to be 7808. In series [2] (BDC dog), the “% dose in feces, Parent” value was 3.3 ± 0.7 % dose and the “% dose in bile, Parent” value is 4.66 ± 1.4 % dose. In addition, the “% dose in urine, Parent” value in series [2] (BDC dog, ND = below quantitative limit 1 ng/mL) stood at 0.05 ± 0.08 % dose. Moreover, the “% dose in bile, Parent” value in series [2] (BDC dog, listed as canagliflozin) is 4.66 % dose. In series [2], the “renal excretion of parent drug” value is given as < 1 % of dose, the “Biliary excretion % of glucuronide” value is “Low (Low 0%‐30%)” and the “Urinary excretion % of glucuronide” value is given as “Low (Low 0%‐30%)”. Besides, in series [2] (intact dog), the “% dose in feces, Parent” value was 2.25 ± 1.3 % dose and the “% dose in urine, Parent” value is listed as 0.27 ± 0.15 % dose. In series [3], the “Peak area (+ABT)” value is recorded as 2019 and the “Peak area (‐ABT)” value worked out at 3414. The EHC result in series [4] was “No”. Moreover, in series [4] (setting [5]), the total exposure AUC(0-inf) turned out to be 16.4 ± 5.9 µM·h, the half-life was 654 ± 108 min, the clearance was found to be 1.32 ± 0.5 mL/min/kg and the AUC is 15.7 ± 5.4 µM·h. Also, the Vd in series [4] (setting [6]) was 0.87 ± 0.28 L/kg. For the same compound, in series [4] (setting [7]), the area under the curve AUC(0-inf) amounted to 21.2 ± 3.9 µM·h, the half-life was 483 ± 37.2 min, the clearance came to 0.93 ± 0.18 mL/min/kg and the AUC was found to be 20.7 ± 3.7 µM·h. The Vd in series [4] (0.5 mg/kg, intact dog, 0.5 mg/kg IV bolus, read-out: V dss) stood at 0.72 ± 0.13 L/kg.
